Data from patent US9416383B2, “Method for enhancing catalytic activity of a lipase” (University of North Carolina at Chapel Hill, priority 2007, dated 2016).
“Also recorded” adds a separate entry of the source.

Legend:
hPLCβ3 = target: T1, hPLCβ3 (Homo sapiens, UniProt Q01970); test: Mass spectrometry of intact hPLCβ3 and LC/MS/MS peptide sequencing (alkylation); conditions: FIG. 6A
T1 construct: confirmed alkylation at up to eight cysteine residues on the full length protein; gift: laboratory of Dr. T. K. Harden, University of North Carolina
T1 sequence (Q01970 1-1234): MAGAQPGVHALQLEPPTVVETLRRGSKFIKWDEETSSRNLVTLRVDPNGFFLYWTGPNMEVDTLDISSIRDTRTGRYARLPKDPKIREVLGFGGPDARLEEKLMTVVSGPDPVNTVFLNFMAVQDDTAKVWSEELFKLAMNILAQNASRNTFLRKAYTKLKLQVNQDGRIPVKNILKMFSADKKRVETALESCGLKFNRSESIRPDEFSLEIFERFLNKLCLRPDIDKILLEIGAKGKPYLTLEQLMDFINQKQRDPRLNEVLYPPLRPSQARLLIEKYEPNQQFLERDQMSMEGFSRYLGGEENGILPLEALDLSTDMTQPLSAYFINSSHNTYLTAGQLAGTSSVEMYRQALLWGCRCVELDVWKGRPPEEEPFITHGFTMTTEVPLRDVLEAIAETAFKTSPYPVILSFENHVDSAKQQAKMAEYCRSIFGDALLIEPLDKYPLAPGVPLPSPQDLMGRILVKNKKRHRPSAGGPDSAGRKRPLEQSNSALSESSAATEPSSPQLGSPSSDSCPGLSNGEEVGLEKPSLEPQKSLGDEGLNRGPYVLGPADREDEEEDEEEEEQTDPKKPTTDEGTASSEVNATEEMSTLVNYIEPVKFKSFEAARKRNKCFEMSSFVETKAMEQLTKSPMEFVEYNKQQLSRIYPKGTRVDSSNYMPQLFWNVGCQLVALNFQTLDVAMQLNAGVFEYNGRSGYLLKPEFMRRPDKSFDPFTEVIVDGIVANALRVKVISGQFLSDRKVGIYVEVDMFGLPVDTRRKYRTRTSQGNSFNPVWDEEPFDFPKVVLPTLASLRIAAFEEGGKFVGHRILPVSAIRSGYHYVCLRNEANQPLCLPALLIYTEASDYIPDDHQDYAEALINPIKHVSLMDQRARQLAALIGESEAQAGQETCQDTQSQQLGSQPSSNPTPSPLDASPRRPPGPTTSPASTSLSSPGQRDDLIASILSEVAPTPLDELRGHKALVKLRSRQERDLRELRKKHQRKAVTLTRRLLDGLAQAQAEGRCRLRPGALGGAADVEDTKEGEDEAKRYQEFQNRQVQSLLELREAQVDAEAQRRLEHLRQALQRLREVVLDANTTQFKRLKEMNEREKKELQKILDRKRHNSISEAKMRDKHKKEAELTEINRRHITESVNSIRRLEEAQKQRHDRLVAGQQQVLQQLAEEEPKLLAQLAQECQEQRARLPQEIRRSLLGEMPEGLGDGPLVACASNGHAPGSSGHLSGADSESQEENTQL
Procedure: The mass-to-charge data were transformed to the mass domain using BioConfirm software from Agilent. For peptide sequencing, solution phase and SDS gel bands of unmodified and modified PLCβ3 was incubated with trypsin overnight at 37° C. […] The tryptic peptides were subsequently analyzed by nano-LC/MS/MS using a Dionex UltiMate nano LC (Sunnyvale, Calif., United States of America) coupled to Sciex (Toronto, Ontario, Canada) Q-Star Pulsar i mass spectrometer. The results were processed using MASCOT (Matrix Sciences, Boston, Mass., United States of America) protein database that had the mass of U73122 modification created as a variable modification.

human PLCβ3 (hPLCβ3) = target: T2, human PLCβ3 (hPLCβ3) (Homo sapiens, UniProt Q01970); test: PLCβ3 activity by cell free assay ([3H]-inositol phosphate formation from PIP2 in dodecylmaltoside mixed micelles); type: biochemical; conditions: for effect on activity of hPLCβ3 in DDM mixed micelles: FIG. 2; for effect on U73122-induced activation of hPLCβ3: FIGS. 3 and 6B
T2 construct: confirmed alkylation at up to eight cysteine residues on the full length protein; gift: laboratory of Dr. T. K. Harden, University of North Carolina
T2 sequence (Q01970 1-1234): T1 sequence (Q01970 1-1234)
Procedure: Purified human PLCβ3 protein was generously provided by the laboratory of Dr. T. K. Harden (Department of Pharmacology, University of North Carolina, Chapel Hill, N.C., United States of America). […] Briefly, hot and cold phosphatidylinositol-4,5-bisphosphate (PIP2; 5 nmol), as substrate, was reconstituted in a 1 mM dodecylmaltoside solution and mixed with assay buffer containing 40 mM Hepes (pH 7.4), 480 mM KCl, 40 mM NaCl, 8 mM EGTA, 4 mM […], and 7.6 mM CaCl2. Compounds at desired concentrations and purified PLCβ3 in 1% fatty acid-free BSA and 10 mM Hepes (pH 7.0), were subsequently added to the mixture. To initiate assays, samples were moved to a 37° C. water bath and incubated for 2-10 minutes such that less than fifteen percent total substrate was hydrolyzed. At designated times, reactions were stopped by addition of 750 μl CHCl3:MeOH:HCl (40:80:1), 100 μl water, 250 μl CHCl3, and 250 μl 0.1M HCl. Samples were vortexed and centrifuged at 3000 rpm for 10 minutes at 4° C. The amount of formed [^3H]-inositol phosphates was measured by liquid scintillation counting of 500 μl of the upper phase in a Packard Tri Carb 4000 Series […].
Data are expressed as mean±SD of three experiments performed in triplicate unless otherwise indicated. Statistical significance was evaluated using unpaired Students t tests. Data were modeled using Win-non Lin (Pharsight, Mountain View, Calif., United States of America) non-linear regression analysis for determination of EC50 (PLCβ3) and IC50 values.

PLC in MDCK cells = conditions: ATP-stimulated, concentration dependent; cited from earlier work
PLC in Caco-2 cells = conditions: ATP-stimulated, concentration dependent; cited from earlier work
MDCK cell monolayers = conditions: concentration-dependent; cited from earlier work
Caco-2 cell monolayers = conditions: concentration-dependent; cited from earlier work

| Structure (SMILES) | effect on activity of hPLCβ3 in DDM mixed micelles (human PLCβ3 (hPLCβ3); DDM mixed micelles) | effect on U73122-induced activation of hPLCβ3 (human PLCβ3 (hPLCβ3); DDM mixed micelles) | inhibition of PLC activity in MDCK cells (PLC in MDCK cells) | inhibition of PLC activity in Caco-2 cells (PLC in Caco-2 cells) | other results |
| --- | --- | --- | --- | --- | --- |
| CCN1C(=O)C=CC1=O [NEM, N-ethylmaleimide] | do not; also recorded: inability to activate | inhibits |  |  | alkylation of hPLCβ3 (hPLCβ3): alkylates hPLCβ3 at multiple amino acid residues |
| COc1ccc2c(c1)CC[C@@H]1[C@@H]2CC[C@]2(C)[C@@H](NCCCCCCN3C(=O)C=CC3=O)CC[C@@H]12 [U73122] | increases the activity |  | inhibits | inhibits | effect on tight junction permeability, MDCK monolayers (MDCK cell monolayers): enhances; effect on tight junction permeability, Caco-2 monolayers (Caco-2 cell monolayers): enhances; EC50 (human PLCβ3 (hPLCβ3)): 14 ± 5 µM; time dependence of hPLCβ3 activation (human PLCβ3 (hPLCβ3); FIG. 4): time dependent |
| COc1ccc2c(c1)CC[C@@H]1[C@@H]2CC[C@]2(C)[C@@H](NCCCCCCN3C(=O)CCC3=O)CC[C@@H]12 [U73343] | do not |  | does not | does not |  |
| N[C@@H](CS)C(=O)O [cysteine] |  | inhibit |  |  |  |
| N[C@@H](CCC(=O)N[C@@H](CS)C(=O)NCC(=O)O)C(=O)O [glutathione] |  | inhibits |  |  | IC50 (human PLCβ3 (hPLCβ3); DDM mixed micelles, mean±SD, read-out: IC50 for inhibition of U73122-induced activation of hPLCβ3): 38 ± 16 µM |
